Our source for the IC50 values is patent publication US12435060B2, “Acylamino bridged heterocyclic compound, and composition and application thereof” (BEIJING SCITECH-MQ PHARMACEUTICALS LIMITED, priority 2019, dated 2025).

pIC50: −log10 of the molar value. Some results are limits rather than exact numbers.

This assay concerns HT29 cells. In words: Inhibition of cell necrosis (CCK8 method), induced programmed necrosis of HT29 cells. To be noted: Homo sapiens, HT-29; rescue from necrosis induced by TNF-α 20 ng/mL, AT-406 1 μM, Z-VAD-FMK 20 μM; 16-20 hours; CCK-8, OD 450 nm. The format is cell-based. The procedure, abridged: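 Rescue from programmed necrosis was scored by CCK-8 absorbance at 450 nm after 16-20 h of TNF-α (20 ng/mL), AT-406 (1 μM) and Z-VAD-FMK (20 μM) at 37 °C, 5% CO2. HT29 cells had received compound 30 min earlier across nine 4-fold dilutions (top 25000 nM final). IC50 came from % inhibition relative to uninduced and induced-only wells.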
Background: Formazan colour is commonly taken as a measure of viable cells.
With `CC(C)(O)CCCCOc1ccc(C(F)(F)F)c(-c2ccnc(NC(=O)c3nnc(Cc4ccccc4F)[nH]3)c2)c1` [Example 269, 5-(2-fluorobenzyl)-N-(4-(5-((5-hydroxyl-5-methylhexyl)oxy)-2-(trifluoromethyl)phenyl)pyridin-2-yl)-4H-1,2,4-triazole-3-carboxamide], the negative-log IC50 (pIC50) (as a rule, −log10 of the IC50, conventionally taken in molar units) was at least 7.00.

The molecule `CC(C)(O)CCCOc1ccc(C(F)(F)F)c(-c2ccnc(NC(=O)c3nnc(Cc4cccc(F)c4)[nH]3)c2)c1` [Example 256, 5-(3-fluorobenzyl)-N-(4-(5-((4-hydroxy-4-methylpentyl)oxy)-2-(trifluoromethyl)phenyl)pyridin-2-yl)-4H-1,2,4-triazole-3-carboxamide] showed a negative logarithm of the IC50 (pIC50) of at least 7.00.

`Cc1ccc(OCCOC(C)(C)C)cc1-c1ccnc(NC(=O)c2nnc(CC3CCCC3)o2)c1` [Example 76] gave a negative-log IC50 (pIC50) of under 5.00.

On to `O=C(Nc1cc(-c2cc(OCCC3CCOCC3)ccc2Cl)c(F)cn1)c1nnc(Cc2ccccc2F)[nH]1` [Example 428, N-(4-(2-chloro-5-(2-(tetrahydro-2H-pyran-4-yl)ethoxy)phenyl)-5-fluoropyridin-2-yl)-5-(2-fluorobenzyl)-4H-1,2,4-triazole-3-carboxamide], for which the pIC50 was at least 7.00.

On to `O=C(Nc1cc(-c2ccccc2OCCO)ccn1)c1nnc(Cc2ccccc2)[nH]1` [Example 124, 5-benzyl-N-(4-(2-(2-hydroxyethoxy)phenyl)pyridin-2-yl)-4H-1,2,4-triazole-3-carboxamide], for which the pIC50 was 5.00 to 6.00.

For `Cc1ccc(OCCCC(C)(C)O)cc1-c1ccnc(NC(=O)c2nnc(Cc3cc(F)c(F)c(F)c3)[nH]2)c1` [Example 217, 5-(3,4,5-trifluorobenzyl)-N-(4-(5-((4-hydroxy-4-methylpentyl)oxy)-2-methylphenyl)pyridin-2-yl)-4H-1,2,4-triazole-3-carboxamide], the negative-log IC50 (pIC50) was 6.00 to 7.00.

Take `CC(C)(O)CCCCOc1ccc(F)c(-c2cc(NC(=O)c3nnc(Cc4ccccc4F)[nH]3)ncc2Cl)c1` [Example 325, N-(5-chloro-4-(2-fluoro-5-((5-hydroxyl-5-methylhexyl)oxy)phenyl)pyridin-2-yl)-5-(2-fluorobenzyl)-4H-1,2,4-triazole-3-carboxamide]: the negative-log IC50 (pIC50) is 6.00 to 7.00.

Turning to `CC(C)(O)CCCOc1ccc(C(F)(F)F)c(-c2ccnc(NC(=O)c3nnc(Cc4ccccc4F)[nH]3)c2)c1` [Example 255, 5-(2-fluorobenzyl)-N-(4-(5-((4-hydroxy-4-methylpentyl)oxy)-2-(trifluoromethyl)phenyl)pyridin-2-yl)-4H-1,2,4-triazole-3-carboxamide], the pIC50 is at least 7.00.

In turn, `CC(C)(O)CCCOc1ccc(C(F)(F)F)c(-c2ccnc(NC(=O)c3nnc(CC4CCCC4)[nH]3)c2)c1` [Example 258, 5-(cyclopentylmethyl)-N-(4-(5-((4-hydroxy-4-methylpentyl)oxy)-2-(trifluoromethyl)phenyl)pyridin-2-yl)-4H-1,2,4-triazole-3-carboxamide] had a pIC50 of at least 7.00.

Consider `CCOCCOc1ccc(Cl)c(-c2ccnc(NC(=O)c3nnc(CC4CCCCC4)[nH]3)c2)c1` [Example 386, N-(4-(2-chloro-5-(2-ethoxyethoxy)phenyl)pyridin-2-yl)-5-(cyclohexylmethyl)-4H-1,2,4-triazole-3-carboxamide], for which the negative-log IC50 (pIC50) is at least 7.00.

`Cc1ccc(OCCOC(C)(C)C)cc1-c1ccnc(NC(=O)c2nnc(CC3CCCC3)[nH]2)c1` [Example 75, N-(4-(5-(2-(tert-butoxy)ethoxy)-2-methylphenyl)pyridin-2-yl)-5-(cyclopentylmethyl)-4H-1,2,4-triazole-3-carboxamide] gave a negative-log IC50 (pIC50) of at least 7.00.

`COCCCOc1ccc(C)c(-c2ccnc(NC(=O)c3nnc(C(C)c4ccccc4)o3)c2)c1` (stereo not shown) [Example 143, N-(4-(5-(3-methoxypropoxy)-2-methylphenyl)pyridin-2-yl)-5-(1-phenylethyl)-1,3,4-oxadiazol-2-carboxamide] gave a negative logarithm of the IC50 (pIC50) of 6.00 to 7.00.

Molecule `CC(C)(O)CCCOc1ccc(Cl)c(-c2ccnc(NC(=O)c3nnc(CN4CCCC4)[nH]3)c2)c1` [Example 358, N-(4-(2-chloro-5-((4-hydroxy-4-methylpentyl)oxy)phenyl)pyridin-2-yl)-5-(pyrrolidin-1-ylmethyl)-4H-1,2,4-triazole-3-carboxamide] showed a pIC50 of under 5.00.

`O=C(Nc1cc(-c2cc(OCC3CCOCC3)ccc2C(F)(F)F)ccn1)c1nnc(Cc2ccccc2F)[nH]1` [Example 300, 5-(2-fluorobenzyl)-N-(4-(5-((tetrahydro-2H-pyran-4-yl)methoxy)-2-(trifluoromethyl)phenyl)pyridin-2-yl)-4H-1,2,4-triazole-3-carboxamide]: the pIC50 was at least 7.00.

As to `Cc1cc(-c2ccnc(NC(=O)c3nnc(Cc4ccccc4)[nH]3)c2)n(C)n1` [Example 27, 5-benzyl-N-(4-(1,3-dimethyl-1H-pyrazol-5-yl)pyridin-2-yl)-4H-1,2,4-triazole-3-carboxamide], the negative-log IC50 (pIC50) was 5.00 to 6.00.

`Cc1ccc(OCCCC(C)(C)O)cc1-c1ccnc(NC(=O)c2nnc(Cc3c(F)ccc(F)c3F)[nH]2)c1` [Example 216, 5-(2,3,6-trifluorobenzyl)-N-(4-(5-((4-hydroxy-4-methylpentyl)oxy)-2-methylphenyl)pyridin-2-yl)-4H-1,2,4-triazole-3-carboxamide] showed a pIC50 of at least 7.00.

`COCCCOc1cccc(-c2ccnc(NC(=O)c3nnc(Cc4ccccc4)[nH]3)c2)c1C` [Example 98, 5-benzyl-N-(4-(3-(3-methoxypropoxy)-2-methylphenyl)pyridin-2-yl)-4H-1,2,4-triazole-3-carboxamide]: the negative-log IC50 (pIC50) is 6.00 to 7.00.

`CCOc1cccc(C)c1-c1ccnc(NC(=O)c2nnc(Cc3ccccc3)[nH]2)c1` [Example 93, 5-benzyl-N-(4-(2-ethoxy-6-methylphenyl)pyridin-2-yl)-4H-1,2,4-triazole-3-carboxamide] had a pIC50 of 5.00 to 6.00.

Take `O=C(Nc1cc(-c2cc(OCCCCCO)ccc2C(F)(F)F)ccn1)c1nnc(CC2CCCC2)[nH]1` [Example 277, 5-(cyclopentylmethyl)-N-(4-(5-((5-hydroxypentyl)oxy)-2-(trifluoromethyl)phenyl)pyridin-2-yl)-4H-1,2,4-triazole-3-carboxamide]: the negative-log IC50 (pIC50) was at least 7.00.

In turn, `COCCOc1ccc(C)c(-c2ccnc(NC(=O)c3nnc(Cc4ccccc4)s3)c2)c1` [Example 130, 5-benzyl-N-(4-(5-(2-methoxyethoxy)-2-methylphenyl)pyridin-2-yl)-1,3,4-thiodiazol-2-carboxamide] gave a pIC50 of under 5.00.

`Cc1cnc(OC(C)C)c(-c2ccnc(NC(=O)c3nnc(Cc4ccccc4)[nH]3)c2)c1` [Example 52, 5-benzyl-N-(2-isopropoxy-5-methyl-[3,4′-bipyridin]-2′-yl)-4H-1,2,4-triazole-3-carboxamide] gave a negative-log IC50 (pIC50) of under 5.00.

The molecule `Cc1ccc(OCC2CCOCC2)cc1-c1ccnc(NC(=O)c2nnc(CC3CCCCC3)[nH]2)c1` [Example 80, 5-(cyclohexylmethyl)-N-(4-(2-methyl-5-((tetrahydro-2H-pyran-4-yl)methoxy)phenyl)pyridin-2-yl)-4H-1,2,4-triazole-3-carboxamide] had a pIC50 of at least 7.00.

`CC(C)(O)CCCOc1ccc(Cl)c(-c2ccnc(NC(=O)c3nnc(Cc4ccc(F)c(Cl)c4F)[nH]3)c2)c1` [Example 501, 5-(3-chloro-2,4-difluorobenzyl)-N-(4-(2-chloro-5-((4-hydroxy-4-methylpentyl)oxy)phenyl)pyridin-2-yl)-4H-1,2,4-triazole-3-carboxamide] gave a pIC50 of 6.00 to 7.00.

In turn, `Cc1ccc(OCCCCC(C)(C)O)cc1-c1ccnc(NC(=O)c2nnc(Cc3ccccc3)[nH]2)c1` [Example 167, 5-benzyl-N-(4-(5-((5-hydroxyl-5-methylhexyl)oxy)-2-methylphenyl)pyridin-2-yl)-4H-1,2,4-triazole-3-carboxamide] showed a negative-log IC50 (pIC50) of at least 7.00.

Molecule `CC(C)(O)CCCOc1ccc(Cl)c(-c2cc(NC(=O)c3nnc(Cc4ccccc4F)[nH]3)ncc2F)c1` [Example 409] had a pIC50 of at least 7.00.

`COc1ccc(Cl)c(-c2cncc(NC(=O)c3nnc(Cc4ccccc4)[nH]3)c2)c1` [Example 31, 5-benzyl-N-(5-(2-chloro-5-methoxyphenyl)pyridin-3-yl)-4H-1,2,4-triazole-3-carboxamide] gave a negative logarithm of the IC50 (pIC50) of under 5.00.

Regarding `Cc1ccc(OCCCC(C)(C)O)cc1-c1ccnc(NC(=O)c2nnc(CC34CC5CC(CC(C5)C3)C4)[nH]2)c1` [Example 180, 5-(adamantan-1-ylmethyl)-N-(4-(5-((4-hydroxy-4-methylpentyl)oxy)-2-methylphenyl)pyridin-2-yl)-4H-1,2,4-triazole-3-carboxamide], the pIC50 was at least 7.00.

`Cc1ccc(OCC(C)(C)O)cc1-c1ccnc(NC(=O)c2nnc(Cc3ccccc3)[nH]2)c1` [Example 117, 5-benzyl-N-(4-(5-(2-hydroxyl-2-methylpropoxy)-2-methylphenyl)pyridin-2-yl)-4H-1,2,4-triazole-3-carboxamide] had a pIC50 of at least 7.00.

Regarding `CCC(O)(CC)CCCOc1ccc(C)c(-c2cc(NC(=O)c3nnc(Cc4ccccc4F)[nH]3)ncc2Cl)c1` [Example 244, N-(5-chloro-4-(5-((4-ethyl-4-hydroxyhexyl)oxy)-2-methylphenyl)pyridin-2-yl)-5-(2-fluorobenzyl)-4H-1,2,4-triazole-3-carboxamide], the negative-log IC50 (pIC50) is at least 7.00.

Take `Cc1ccc(OCCOC(C)(C)C)cc1-c1ccnc(NC(=O)c2nnc(Cc3ccccc3)[nH]2)c1` [Example 64, 5-benzyl-N-(4-(5-(2-(tert-butoxy)ethoxy)-2-methylphenyl)pyridin-2-yl)-4H-1,2,4-triazole-3-carboxamide]: the pIC50 was at least 7.00.

In the case of `CCC(O)(CC)CCCOc1ccc(Cl)c(-c2cc(NC(=O)c3nnc(CC4CCCCC4)[nH]3)ncc2Cl)c1` [Example 418, N-(5-chloro-4-(2-chloro-5-((4-ethyl-4-hydroxyhexyl)oxy)phenyl)pyridin-2-yl)-5-(cyclohexylmethyl)-4H-1,2,4-triazole-3-carboxamide], the negative-log IC50 (pIC50) is 6.00 to 7.00.
